For orientation: IC50 means the concentration at which inhibition is half-maximal.

This is an account of results in publication PMC3220932 (Pulmonary pharmacology & therapeutics, 2011).

Each structure is given as a SMILES string.

The test system of series [1] is human bronchial smooth muscle cells. The series is classed as cell-based. To be noted: for IC50: read-out: IC50 for rapidly inhibiting formoterol uptake by human bronchial smooth muscle cells, 200 nmol/l [3H]-formoterol, mean, n = 6.
Series [2] has as its target T1, OCT3 (Homo sapiens, UniProt O75751).
T1 sequence (O75751 1-556): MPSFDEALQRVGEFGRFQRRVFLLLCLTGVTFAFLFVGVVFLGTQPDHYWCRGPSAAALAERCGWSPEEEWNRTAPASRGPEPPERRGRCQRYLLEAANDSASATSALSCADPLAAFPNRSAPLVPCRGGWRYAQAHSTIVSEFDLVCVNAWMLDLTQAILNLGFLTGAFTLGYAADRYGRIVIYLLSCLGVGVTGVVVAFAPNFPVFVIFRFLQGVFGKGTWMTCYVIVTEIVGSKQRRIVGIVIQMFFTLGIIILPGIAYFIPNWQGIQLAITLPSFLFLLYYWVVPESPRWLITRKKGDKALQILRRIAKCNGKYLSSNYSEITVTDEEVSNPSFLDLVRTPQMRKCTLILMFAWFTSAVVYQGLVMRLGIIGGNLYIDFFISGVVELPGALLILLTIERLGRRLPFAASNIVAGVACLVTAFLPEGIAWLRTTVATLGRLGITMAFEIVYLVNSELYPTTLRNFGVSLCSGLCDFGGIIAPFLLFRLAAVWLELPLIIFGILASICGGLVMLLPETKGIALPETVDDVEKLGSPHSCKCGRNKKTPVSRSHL
Particulars: bronchial smooth muscle cells, OCT3 targeted shRNA.

The subject of series [3] is human airway epithelial cells. As to the kind of experiment: Corticosteroid effect on tritiated drug uptake by airway epithelial cells. Particulars: 5 μmol/l. The class given is cell-based.
Series [4] has as its system human bronchial smooth muscle cells. As to the kind of experiment: Cellular drug uptake by bronchial smooth muscle cells. Particulars: 37°C, 15 min; for cellular uptake in smooth muscle cells: 200 nmol/l [3H]-formoterol or [3H]-salmeterol.
Series [5] has as its system human airway epithelial cells. The experiment in a line: Cellular drug uptake by airway epithelial cells. To be noted: 37°C, 15 min; for cellular uptake in airway epithelial cells: 200 nmol/l [3H]-formoterol or [3H]-salmeterol.

With `CCC(=O)O[C@]1(C(=O)CO)[C@@H](C)C[C@H]2[C@@H]3CCC4=CC(=O)C=C[C@]4(C)[C@@]3(Cl)[C@@H](O)C[C@@]21C` [Beclomethasone 17-monopropionate], the IC50 in series [1] (15-min incubation) turned out to be 4.04 µM.
Consider `C[C@]12C[C@H](O)[C@H]3[C@@H](CCC4=CC(=O)CC[C@@]43C)[C@@H]1CC[C@@H]2C(=O)CO` [Corticosterone], for which the “inhibitory effect on formoterol uptake under OCT3 mRNA suppression” value in series [2] was “reduces”. In addition, in series [3] (15-min incubation), the “effect on MPP+ uptake by airway epithelial cells” value is “but not airway epithelial cells”. Moreover, in series [3] (15 min), the “effect on salmeterol uptake in epithelial cells” value is listed as “insensitive to corticosterone” and the “rapid inhibitory effect on formoterol uptake in epithelial cells” value is recorded as “not in epithelial cells”. Besides, in series [1] (5 μM, 100 μM actinomycin D added 60 min prior to transport measurements), the “action on formoterol uptake in presence of transcription inhibitor actinomycin D” value was “insensitive”. For the same molecule, the “effect on MPP+ uptake by bronchial smooth muscle cells” value in series [1] (5 μmol/l, 15-min incubation) is listed as “significantly reduced”. The “effect on salmeterol uptake in bronchial smooth muscle cells” value in series [1] (5 μmol/l, 15 min) is reported as “insensitive to corticosterone”. Besides, the “inhibitory action on formoterol uptake after pretreatment for 45 or 90 min” value in series [1] (5 μmol/l, bronchial smooth muscle cells) is on record as “not enhanced”.
In the case of `CCC(=O)O[C@]1(C(=O)SCF)[C@H](C)C[C@H]2[C@@H]3C[C@H](F)C4=CC(=O)C=C[C@]4(C)[C@@]3(F)[C@@H](O)C[C@@]21C` [Fluticasone propionate], in series [1] (15-min incubation), the IC50 was 6.29 µM.
As to `C[n+]1ccc(-c2ccccc2)cc1` [MPP^+, N-methyl-4-phenylpyridinium], in series [4] (5 nmol/l [3H]-MPP+), the “cellular uptake of MPP+ in smooth muscle cells” value is listed as 0.21 ± 0.02 pmol/mg protein/15 min. Also, the “cellular uptake of MPP+ in epithelial cells” value in series [5] (5 nmol/l [3H]-MPP+) is 0.18 ± 0.03 pmol/mg protein/15 min.
For the molecule `COc1ccc(CC(C)NCC(O)c2ccc(O)c(NC=O)c2)cc1` (stereo not shown) [formoterol], in series [4], the “cellular uptake in smooth muscle cells” value was found to be 28.1 ± 1.6 pmol/mg protein/15 min. Also, the “cellular uptake in airway epithelial cells” value in series [5] is on record as 8.9 ± 0.5 pmol/mg protein/15 min.
Consider `OCc1cc(C(O)CNCCCCCCOCCCCc2ccccc2)ccc1O` (stereo not shown) [salmeterol], for which the “cellular uptake in smooth muscle cells” value in series [4] amounted to 306.9 ± 13.3 pmol/mg protein/15 min. In addition, the “cellular uptake in airway epithelial cells” value in series [5] is 46.6 ± 1.9 pmol/mg protein/15 min.
